# Assay: Anticancer human tumor 997537-175-T-J1-PDC patient-derived colon adenocarcinoma cell line growth inhibition [POLQ]
# Settings: 997537-175-T-J1-PDC complex spheroid viability, combination with POLQ inhibitors; for IC50: curve of first compound; for viability, T/C: stronger effect = lower value
# Method in brief: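 Complex spheroid viability model combining PDC tumour cells with endothelial (HUVEC) and MSC stromal cells. Novobiocin, ART-558 or RP6685 were tested singly and in combination with standard and investigational anticancer drugs. Each was titrated in half-log steps from near clinical Cmax, or from 10 microM where Cmax was unknown.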
# [1] = second compound 0.0316 µM, first compound 0.0316 µM
# [2] = second compound 0.0316 µM, first compound 0.1 µM
# [3] = second compound 0.0316 µM, first compound 0.316 µM
# [4] = second compound 0.0316 µM, first compound 1 µM
# [5] = second compound 0.0316 µM, first compound 3.16 µM
# [6] = second compound 0.0316 µM, first compound 10 µM
# [7] = second compound 0.1 µM, first compound 0.0316 µM
# [8] = second compound 0.1 µM, first compound 0.1 µM
# [9] = second compound 0.1 µM, first compound 0.316 µM
# [10] = second compound 0.1 µM, first compound 1 µM
# [11] = second compound 0.1 µM, first compound 3.16 µM
# [12] = second compound 0.1 µM, first compound 10 µM
# [13] = second compound 0.316 µM, first compound 0.0316 µM
# [14] = second compound 0.316 µM, first compound 0.1 µM
# [15] = second compound 0.316 µM, first compound 0.316 µM
# [16] = second compound 0.316 µM, first compound 1 µM
# [17] = second compound 0.316 µM, first compound 3.16 µM
# [18] = second compound 0.316 µM, first compound 10 µM
# [19] = second compound 1 µM, first compound 0.0316 µM
# [20] = second compound 1 µM, first compound 0.1 µM
# [21] = second compound 1 µM, first compound 0.316 µM
# [22] = second compound 1 µM, first compound 1 µM
# [23] = second compound 1 µM, first compound 3.16 µM
# [24] = second compound 1 µM, first compound 10 µM
# [25] = second compound 3.16 µM, first compound 0.0316 µM
# [26] = second compound 3.16 µM, first compound 0.1 µM
# [27] = second compound 3.16 µM, first compound 0.316 µM
# [28] = second compound 3.16 µM, first compound 1 µM
# [29] = second compound 3.16 µM, first compound 3.16 µM
# [30] = second compound 3.16 µM, first compound 10 µM
# [31] = second compound 10 µM, first compound 0.0316 µM
# [32] = second compound 10 µM, first compound 0.1 µM
# [33] = second compound 10 µM, first compound 0.316 µM
# [34] = second compound 10 µM, first compound 1 µM
# [35] = second compound 10 µM, first compound 3.16 µM
# [36] = second compound 10 µM, first compound 10 µM
# 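Also: luminescence signal used as a surrogate for viable cells; spheroids exposed to drugs for seven days before readout.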
compound,measurement,setting,value
CC1COCCN1c1cc(C2(O)CC3CCC(C2)O3)c2cnn(-c3ccn[nH]3)c2n1 (centres undefined) + Cc1cccc(N(C)C(=O)C2C(O)CCN2c2nc(C)cc(C(F)(F)F)c2C#N)c1,IC50,second compound 0.0316 µM,> 10 µM
same,IC50,second compound 0.1 µM,3.16 µM
same,IC50,second compound 0.316 µM,0.936 µM
same,IC50,second compound 1 µM,> 10 µM
same,IC50,second compound 3.16 µM,> 10 µM
same,IC50,second compound 10 µM,3.99 µM
same,"viability, T/C",[1],79.8%
same,"viability, T/C",[2],96%
same,"viability, T/C",[3],60%
same,"viability, T/C",[4],52.8%
same,"viability, T/C",[5],58.3%
same,"viability, T/C",[6],39%
same,"viability, T/C",[7],94.8%
same,"viability, T/C",[8],94.2%
same,"viability, T/C",[9],48.6%
same,"viability, T/C",[10],42.4%
same,"viability, T/C",[11],66.4%
same,"viability, T/C",[12],53.9%
same,"viability, T/C",[13],76.5%
same,"viability, T/C",[14],66.8%
same,"viability, T/C",[15],54.8%
same,"viability, T/C",[16],45.9%
same,"viability, T/C",[17],53.8%
same,"viability, T/C",[18],47.6%
same,"viability, T/C",[19],86.8%
same,"viability, T/C",[20],81.9%
same,"viability, T/C",[21],43.2%
same,"viability, T/C",[22],57.3%
same,"viability, T/C",[23],81.9%
same,"viability, T/C",[24],64.7%
same,"viability, T/C",[25],84.3%
same,"viability, T/C",[26],59.9%
same,"viability, T/C",[27],62.8%
same,"viability, T/C",[28],54.1%
same,"viability, T/C",[29],54.5%
same,"viability, T/C",[30],75.8%
same,"viability, T/C",[31],92.3%
same,"viability, T/C",[32],69%
same,"viability, T/C",[33],61.4%
same,"viability, T/C",[34],47.4%
same,"viability, T/C",[35],58.1%
same,"viability, T/C",[36],44.8%
COc1cccc2c1C(=O)c1c(O)c3c(c(O)c1C2=O)CC(O)(C(=O)CO)CC3OC1CC(N)C(O)C(C)O1 (centres undefined) + Nc1ccc(C#CCN(C(=O)Cc2ncc(C(F)(F)F)cc2C(F)(F)F)c2ccc(F)cc2)nn1,IC50,second compound 0.0316 µM,3.2 µM
same,IC50,second compound 0.1 µM,1.92 µM
same,IC50,second compound 0.316 µM,3.54 µM
same,IC50,second compound 1 µM,2.12 µM
same,IC50,second compound 3.16 µM,2.85 µM
same,IC50,second compound 10 µM,2.14 µM
same,"viability, T/C",[1],102%
same,"viability, T/C",[2],97.5%
same,"viability, T/C",[3],89.1%
same,"viability, T/C",[4],93.5%
same,"viability, T/C",[5],50.4%
same,"viability, T/C",[6],12.2%
same,"viability, T/C",[7],99.4%
same,"viability, T/C",[8],114%
same,"viability, T/C",[9],99.9%
same,"viability, T/C",[10],70.6%
same,"viability, T/C",[11],34.4%
same,"viability, T/C",[12],7.13%
same,"viability, T/C",[13],110%
same,"viability, T/C",[14],109%
same,"viability, T/C",[15],98.8%
same,"viability, T/C",[16],87.7%
same,"viability, T/C",[17],53.2%
same,"viability, T/C",[18],13.9%
same,"viability, T/C",[19],94.1%
same,"viability, T/C",[20],109%
same,"viability, T/C",[21],81.8%
same,"viability, T/C",[22],79.5%
same,"viability, T/C",[23],34.8%
same,"viability, T/C",[24],10.2%
same,"viability, T/C",[25],94.4%
same,"viability, T/C",[26],107%
same,"viability, T/C",[27],72.6%
same,"viability, T/C",[28],78.8%
same,"viability, T/C",[29],46.6%
same,"viability, T/C",[30],8.26%
same,"viability, T/C",[31],94.7%
same,"viability, T/C",[32],97.9%
same,"viability, T/C",[33],91.4%
same,"viability, T/C",[34],80%
same,"viability, T/C",[35],34.8%
same,"viability, T/C",[36],10.1%

# — PubChem BioAssay AID1963825 (Molecular Pharmacology Branch, DTP, NCI, 2024)
